Data set [1] relates to breast cancer MCF-7 cell line. Kind of data set: In vitro anti-proliferative activity, MTT assay. It counts as cell-based, human. Conditions: MCF-7, MTT. As to the method: The in vitro anti-proliferative activity of the newly prepared pyridine-ureas 8a–n was examined against breast cancer MCF-7 cell line. The assay was carried out, as triplicates, utilizing the 3-(4,5-dimethylthiazol-2-yl)-2,5-diphenyltetrazolium bromide (MTT) colorimetric assay as described by T. Mosmann. Doxorubicin and Sorafenib were included in this assay as a reference drug.
MCF-7 (human breast cancer cell line) and WI-38 (human lung fibroblast cell line), were obtained from American Type Culture Collection (Manassas, VA, USA). The cells were propagated in DMEM and supplemented with 10% heat-inactivated FBS (Hyclone), 10 μg/mL of insulin (Manufacturer, Sigma, St. Louis, MO, USA), and 1% penicillin-streptomycin. MTT assay was utilized to examine the in vitro anti-proliferative activity of the newly prepared ureas following the reported procedures. […] The data presented are the mean of at least three separate experiments.
Background: Tetrazolium assays rely on reduction of a dye to a coloured formazan, in cell work by metabolically active cells.

Where [2] appears, read: Homo sapiens, MCF7, 48 h, 48 h of incubation, read-out: IC50 48 h.
Where [3] appears, read: Homo sapiens, MCF7, 72 h, 72 h of incubation, read-out: IC50 72 h.
Setting [4] is: 48 h of incubation, read-out: IC50 48 h.

Where two headings read alike, the source gives them in different places.

On to `COc1ccc(-c2ccc(NC(=O)Nc3ccccc3)c(C)n2)cc1` [Compound 8a, 1-(6-(4-Methoxyphenyl)-2-methylpyridin-3-yl)-3-phenylurea], for which the melting point (in general, the temperature, or range, at which the solid turns liquid) lay within 205 to 207 °C. The IC50 (commonly the point on the concentration scale where inhibition reaches its midpoint) in data set [1] (setting [2]) was 3.03 ± 0.22 µM. In addition, in data set [1] (setting [3]), the IC50 turned out to be 2.83 ± 0.25 µM.
Taken in the same sequence, the figures for `COc1ccc(-c2ccc(NC(=O)Nc3cccc(Cl)c3)c(C)n2)cc1` [Compound 8c, 1-(3-Chlorophenyl)-3-(6-(4-methoxyphenyl)-2-methylpyridin-3-yl) Urea] were 212 to 214 °C, 6.4 ± 0.41 µM and 3.52 ± 0.11 µM.
As to `COc1ccc(-c2ccc(NC(=O)Nc3cccc(OC)c3)c(C)n2)cc1` [Compound 8f, 1-(3-Methoxyphenyl)-3-(6-(4-methoxyphenyl)-2-methylpyridin-3-yl) Urea], the melting point was in the range of 227 to 230 °C. In data set [1] (setting [2]), the 50% inhibitory concentration (IC50) is above 50 µM. Further, the IC50 in data set [1] (setting [3]) was above 50 µM. In data set [1] (setting [4]), the IC50 is above 50 µM.
`COc1ccc(NC(=O)Nc2ccc(-c3ccc(OC)cc3)nc2C)cc1` [Compound 8g, 1-(4-Methoxyphenyl)-3-(6-(4-methoxyphenyl)-2-methylpyridin-3-yl) Urea] yielded a melting point of 241 to 242 °C. Moreover, the IC50 in data set [1] (setting [2]) was found to be 4.12 ± 0.27 µM. Also, the IC50 in data set [1] (setting [3]) is 27.2 ± 1.98 µM.
In the case of `COc1ccc(-c2ccc(NC(=O)Nc3ccccc3)c(C)n2)cc1OC` [Compound 8h, 1-(6-(3,4-Dimethoxyphenyl)-2-methylpyridin-3-yl)-3-phenylurea], the melting point lay in the range of 238 to 239 °C. In addition, the IC50 in data set [1] (setting [2]) is above 50 µM. Further, in data set [1] (setting [3]), the IC50 is above 50 µM. In addition, the IC50 in data set [1] (setting [4]) is above 50 µM.
Compound `COc1ccc(-c2ccc(NC(=O)Nc3ccc(Cl)cc3)c(C)n2)cc1OC` [Compound 8k, 1-(4-Chlorophenyl)-3-(6-(3,4-dimethoxyphenyl)-2-methylpyridin-3-yl) Urea] gave a melting point of 266 to 267 °C. For the same compound, the IC50 in data set [1] (setting [2]) worked out at 5.63 ± 0.36 µM. For the same compound, in data set [1] (setting [3]), the IC50 was 3.45 ± 0.3 µM.
`COc1cccc2c1C(=O)c1c(O)c3c(c(O)c1C2=O)C[C@@](O)(C(=O)CO)C[C@@H]3O[C@H]1C[C@H](N)[C@H](O)[C@H](C)O1` [Dox., Doxorubicin, reference compound]: the IC50 in data set [1] (setting [2]) is 1.93 ± 0.15 µM; in data set [1] (setting [3]), 1.07 ± 0.07 µM.
The like results for `CNC(=O)c1cc(Oc2ccc(NC(=O)Nc3ccc(Cl)c(C(F)(F)F)c3)cc2)ccn1` [Sorafenib, reference compound] were, in that order, 4.5 ± 0.3 µM and 1.71 ± 0.15 µM.

These data come from publication PMC6100082, “Pyridine-Ureas as Potential Anticancer Agents: Synthesis and In Vitro Biological Evaluation” (Molecules : A Journal of Synthetic Chemistry and Natural …, 2018).
